Common to all, as to format: cell-based, human
Assay [1] has as its system HaCaT cells. Briefly: Cell death assay in HaCaT keratinocytes (Example 3). As for the experimental part:
In an initial experiment, various concentrations of SOR-C13 and SOR-C27 were tested on human keratinocytes (HaCaT cells) for their ability to cause cell death. The negative control was Phosphate Buffered Saline (PBS) and the positive control was Glycolic Acid (20 mM), a known activator of TRPV3. At the concentrations used (10, 100 and 1000 μM) only the 1000 μM concentration produced a statistically significant increase in cell death over PBS (FIG. 6). […] The two peptides appeared to be indistinguishable in their activity with respect to the number of dead cells
Both peptides were dissolved in PBS at 30 mM concentration at ambient temperature based on the peptide content with a correction factor (SOR-C13 concentration was multiplied by 1.19, while SOR-C27 concentration was multiplied by 1.29). Stock solutions were sterilized by passing through a 0.2 μm syringe filter prewashed with PBS. Stocks of peptides were kept at −20° C. during the study.
Human immortalized keratinocyte HaCaT cells (Cat. #T0020001) were from Addexbio Technologies (San Diego, California, USA). In general, HaCaT cells were cultured in 37° C. CO2 incubator in DEME with 1.0 g/L glucose (Lonza, Cat #12-707F) with 10% FBS. Glutamine (2 mM), penicillin (100 I.U.) and streptomycin (100 μg/ml) were added to the media. Cells were sub-cultured twice per week using Trypsin-0.25% EDTA to detach cells.
HaCaT cells were plated at ˜8×10^5/well in each well of the 12-well tissue culture plates in triplicates in 2 ml culture media. Twenty-four (24) hours post-plating, cells were treated with PBS, or SOR-C13 at 10, 100 and 1000 μM, or SOR-C27 at 10, 100 and 1000 μM, or glycolic acid at 20 mM.
At 72 hours post-treatment, the incubation was terminated and supernatant was collected. Attached cells were washed with 2 ml PBS, and trypsinized. Suspension of cells was combined with supernatant and spun at 1000 g for 5 minutes. The cell pellet was then resuspended in 100 μl PBS for cell counting using trypan blue exclusion.
Student's t-test was used to compare the group treated with a test article vs. the group treated with PBS. Standard errors of mean (SEM) were used to represent variation of data.

Assay [2] concerns HaCaT cells. Briefly: Wound healing (scratch gap closure) assay in HaCaT cells (Example 4). The settings on record: for Migration Score (gap closure activity): HaCaT wound model. As for the experimental part:
SOR-C13 and SOR-C27 were tested for their ability to promote tissue repair in a human keratinocytes (HaCaT) model of wound healing. In this model, cells are grown to confluency and then a gap is made in the sheet of cells by scratching the surface of the cells. After treating the cells for 24 hours, the closure of the gap, and the state of the cells in terms of polarization and mobility into the gap, are measured as a surrogate for activation of the wound healing response and the proliferation and/or migration of cells involved in tissue repair.
HaCaT cells were plated at 4×10^5 per well in 12-well tissue culture plates in MEGM Bullet Kit (Lonza, Cat. #CC-3150) containing bovine pituitary extracts (BPE), hEGF, insulin, and hydrocortisone. The total volume was 2 ml. About 24 hours later, a gap at the bottom of each well was generated by scratching with a sterile pipette tip. The supernatant was aspirated and cells were washed gently once with PBS. Fresh media (MEGM Bullet Kit, 2 ml) was added after the wash. Cells were treated in duplicates with PBS, or SOR-C13 at 10, 100 and 1000 μM, or SOR-C27 at 10, 100 and 1000 μM, and 100 μM valproic acid. After 24 hours, each well was examined under the microscope to semi-quantify the gap closure by cell migration. A digital camera fixed to the microscope was used to capture images of cells.
Under visual inspection, the wound healing results was scored as: • “−”: minimal cell polarization toward wound, no initiation of cell protrusion into the gap; no change in the wound gap; • “+”: cell polarization toward wound was observed; cell protrusion was observed; cell migration started but gap size is between 75 to 100% of original wound gap; • “++”: cell polarization toward the wound was observed; cell protrusion was observed; cell migration across the gap was observed, and gap size ≤½ of original wound gap; • “+++”: cell polarization toward wound was observed; cell protrusion was observed; cell migration across the gap was observed, and gap size ≤⅓ of original wound gap. Results

Assay [3] relates to HaCaT cells. Briefly: Wound healing assay in HaCaT cells with SOR-C13 fragments (Example 5). Conditions: 24 hours. The protocol: HaCaT cells were plated at 1.6×10^5 per well in 24-well tissue culture plates in 1 ml of DMEM low glucose medium with 10% FBS. After 3 days, when the cells in each well were ˜100% confluent, a gap at the bottom of each well was generated by scratching with a sterile pipette tip. Supernatant was aspirated and cells were washed gently once with PBS. Fresh media (MEGM Bullet Kit, (Lonza, Cat. #CC-3150) containing bovine pituitary extracts (BPE), hEGF, insulin, and hydrocortisone was added after the wash with peptides. After 24 hours, cells were fixed with 2% paraformaldehyde with 15-minute incubation. Fixed cells were rinsed with PBS. Cells in each well were then examined under the microscope to semi-quantify the gap closure by cell migration. A digital camera fixed to the microscope was used to capture images of cells. The width of gap was measured by a ruler semi-quantitatively on the image. Under visual inspection, the wound healing results were also scored as “−”; “+”; “++”; or “+++” using the same criteria as set out in Example 4.
The effect of the peptides on tissue repair was determined using a wound healing assay that measures the migration of HaCaT cells. Gap size prior to and after treatment was semi-quantified by measuring the size of each gap on a digital photograph of the cells.

Entries after “also recorded” stand apart in the source; their conditions may differ. Peptide text beside a SMILES is read from it.

As for `CC(C)C[C@H](NC(=O)[C@H](Cc1ccccc1)NC(=O)[C@H](CCC(=O)O)NC(=O)[C@@H](N)CCCCN)C(=O)N[C@@H](Cc1cnc[nH]1)C(=O)N1CCC[C@H]1C(=O)N[C@@H](CO)C(=O)N[C@@H](CCCCN)C(=O)N[C@H](C(=O)N[C@@H](CC(=O)O)C(=O)N[C@@H](CC(C)C)C(=O)N1CCC[C@H]1C(=O)N[C@@H](CCCNC(=N)N)C(=O)O)C(C)C` [SOR-C13, KEFLHPSKVDLPR] (H-KEFLHPSKVDLPR-OH), the “increase in cell death compared to PBS treatment” value in assay [1] (1 mM, 72-hour incubation) was about 2 fold. The “induction of cell death compared to PBS” value in assay [1] (1 mM, 72 hours, p<0.05) is “significantly induced cell death”; in assay [1] (10 or 100 μM, 72 hours), “no significant difference in the numbers of dead cells; also recorded: did not have a significant effect”. For the same compound, the “number of dead cells” value in assay [1] (1 mM, 72 hours, trypan blue exclusion) is reported as ~2.2×10^4 /well. Further, the “effect on migration of HaCaT cells through the scratch (words)” value in assay [2] (10 μM, 24 hours) is “little difference compared to PBS treatment”; in assay [2] (100 μM, 24 hours), “clearly had an effect to induce cell migration”; in assay [2] (1000 μM, 24 hours) it was “dramatically closed”. Also, the “Migration Score (gap closure activity)” value in assay [2] (10 uM, 24 hours) is “+ (cell polarization toward wound was observed; cell protrusion was observed; cell migration started but gap size is between 75 to 100% of original wound gap)”; in assay [2] (100 uM, 24 hours), “++ (cell polarization toward the wound was observed; cell protrusion was observed; cell migration across the gap was observed, and gap size ≤½ of original wound gap)”; in assay [2] (1000 uM, 24 hours) it was “+++ (cell polarization toward wound was observed; cell protrusion was observed; cell migration across the gap was observed, and gap size ≤⅓ of original wound gap)”. In addition, the “effect on migration of HaCaT cells over the tested concentrations” value in assay [2] (10, 100, 1000 μM, 24 hours) was “promote tissue repair in a dose responsive manner; also recorded: dose-dependent effect on promoting the migration; also recorded: induced migration of HaCaT cells in a dose-dependent manner”. In assay [2] (24-hour incubation), the “concentrations at which wound healing of HaCaT cells was promoted” value is at least 100 µM. Besides, the “wound healing response, gap closure” value was “no response” in assay [3] (1000 μM); “very good response” in assay [3] (two lowest concentrations (10 and 100 μM)). The “concentration dependence of wound healing response / gap closure” value in assay [3] (10, 100 and 1000 μM) is reported as “lower concentrations of SOR-C13 are more effective than higher concentrations; also recorded: lower concentrations are more effect than higher concentrations”.

Source of the values: patent US12239729B2, “TRPV3 agonists for the treatment of skin conditions” (Soricimed Biopharma Inc., priority 2012, dated 2025).
